From patent US9440957B2, “Compounds and compositions for modulating EGFR Activity” (Novartis AG, priority 2012, dated 2016)
Where two headings read alike, the source gives them in different places.

How the values were obtained:
EGFR(L858R/T790M) = biological target: T1, EGFR(L858R/T790M) (Homo sapiens, UniProt P00533, L858R/T790M); assay: EGFR biochemical assay (HTRF), IC50 determinations
T1 construct: purchased from Carna (GST-a.a. 669-1210)
In short: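 HTRF kinase reaction with biotin-TK peptide at room temperature, quenched with EDTA at 60 min and detected with PT66K/SAXL after 1 h. Without preincubation, enzyme starts the reaction with compound, ATP and peptide present. With preincubation, compound, enzyme and peptide sit at room temperature for a set time before ATP is added.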

H1975 (EGFR L858/T790M) = H1975 (EGFR L858/T790M) (Homo sapiens, UniProt P00533, L858R/T790M); assay: EGFR target modulation in H1975 cell line (phospho-EGFR Y1173 ELISA); format: cell-based
In short: (§1)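 Readout: luminescent pY1173-EGFR sandwich ELISA on cell lysates. Treatment: compound, 3 h, 37 °C.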

H3255 (EGFR L858R) = H3255 (EGFR L858R) (Homo sapiens, UniProt P00533, L858R); assay: EGFR target modulation in H3255 cell line (phospho-EGFR Y1173 ELISA); format: cell-based
In short: as §1

HaCaT (EGFR WT) = HaCaT (EGFR WT) (Homo sapiens, UniProt P00533); assay: EGFR target modulation in HaCaT (EGFR-WT) cell line (phospho-EGFR Y1173 ELISA); format: cell-based; conditions: value in parentheses
Experimental: EGFR Target Modulation in HaCaT (EGFR-WT) Cell Line Tissue Culture. […] The serial diluted compounds were transferred to the plate containing cells by using a 50 nl Pin Head device (Perkin Elmer) and the cells were placed back in the incubator for 3 hours. […] Phospho-EGFR ([…]) ELISA. Solid white high-binding ELISA plates (Greiner #781074) were coated with 5 ug/ml anti-EGFR capture antibody (R&D Systems #AF231) overnight in 50 mM carbonate/bicarbonate pH 9.5 buffer. […] Wash steps were carried out with a Bio-Tek ELx405 SelectTM using 4 cycles of 100 ul TBS-T (20 mM Tris, 137 mM NaCl, 0.05% Tween-20) per well. […] Lysis was allowed to occur for 20 minutes on ice. A 25 ul aliquot was added to each well of the blocked ELISA plate and incubated overnight at 4° C. with gentle shaking. […] After washing, 1:2,000 anti-rabbit-HRP (Cell Signaling #7074) in 0.2% BSA/TBS-T was added and incubated for 1 hour at room temperature. Chemiluminescent detection was carried out with SuperSignal ELISA Pico substrate (ThermoScientific #37069). Signal was read on EnVision plate reader using built-in UltraLUM setting. Data Analysis. Control cells treated with EGF were set to 100% maximum response. […] With these parameters, the IC50's for each compound in each cell line was calculated using non-linear curve fitting analysis.

[1] = biological target: human EGFR WT (NIH/3T3 cells, EGF-induced) (Homo sapiens, UniProt P00533); assay: EGFR target modulation in engineered NIH/3T3 cell lines (phospho-EGFR Y1068 AlphaLISA), EGFR WT; format: cell-based; conditions: engineered NIH/3T3 cells, read-out: NIH3T3 IC50 (μM) EGFR (WT)
In short: (§2)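 Engineered NIH/3T3 cells expressing EGFR variants treated 3 h at 37 °C with 12-point 1:3 compound series (top stock 10 μM); only WT cells stimulated with 50 ng/ml EGF for 5 min before lysis. Phospho-Y1068 measured by AlphaLISA with total-EGFR antibody; IC50 from non-linear fitting.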

[2] = biological target: human EGFR L858R (NIH/3T3 cells) (Homo sapiens, UniProt P00533, L858R); assay: EGFR target modulation in engineered NIH/3T3 cell lines (phospho-EGFR Y1068 AlphaLISA), EGFR L858R; format: cell-based; conditions: engineered NIH/3T3 cells, read-out: NIH3T3 IC50 (μM) EGFR (L858R)
In short: as §2

[3] = biological target: human EGFR L858R/T790M (NIH/3T3 cells) (Homo sapiens, UniProt P00533, L858R/T790M); assay: EGFR target modulation in engineered NIH/3T3 cell lines (phospho-EGFR Y1068 AlphaLISA), EGFR L858R/T790M; format: cell-based; conditions: engineered NIH/3T3 cells, read-out: NIH3T3 IC50 (μM) EGFR (L858R/T790M)
In short: as §2

HCC827 (Del E746-A750) = HCC827 (Del E746-A750) (Homo sapiens, UniProt P00533, DEL746-750); assay: EGFR target modulation in HCC827 cell line (phospho-EGFR Y1173 ELISA); format: cell-based
Experimental: EGFR Target Modulation in H1975, H3255 and HCC827 Cell Lines Tissue Culture. Cells were maintained in 10% FBS/RPMI supplemented with 100 μg/ml Penicillin/Streptomycin (Hyclone #SH30236.01). […] The cells were allowed to incubate overnight in a 37° C., 5% CO2 humidified tissue culture incubator. […] The serial diluted compounds were transferred to the plate containing cells by using a 50 nl Pin Head device (Perkin Elmer) and the cells were placed back in the incubator for 3 hours. Phospho-EGFR ([…]) Target Modulation Assay. The media was reduced to 20 ul using a Bio-Tek ELx 405 SelectTM plate washer. […] The plates were shaken at 4° C. for 20 minutes. An aliquot of 25 ul from each well was transferred to pEGFR(Y1173) ELISA plates for analysis. Phospho-EGFR ([…]) ELISA. Solid white high-binding ELISA plates (Greiner #781074) were coated with 5 ug/ml anti-EGFR capture antibody (R&D Systems #AF231) overnight in 50 mM carbonate/bicarbonate pH 9.5 buffer. Plates were blocked with 1% BSA (Sigma #A7030) in PBS for 1 hour at room temperature. Wash steps were carried out with a Bio-Tek ELx405 SelectTM using 4 cycles of 100 ul TBS-T (20 mM Tris, 137 mM NaCl, 0.05% Tween-20) per well. […] Lysis was allowed to occur for 20 minutes on ice. A 25 ul aliquot was added to each well of the blocked ELISA plate and incubated overnight at 4° C. with gentle shaking. […] After washing, 1:2,000 anti-rabbit-HRP (Cell Signaling #7074) in 0.2% BSA/TBS-T was added and incubated for 1 hour at room temperature. Chemiluminescent detection was carried out with SuperSignal ELISA Pico substrate (ThermoScientific #37069). Signal was read on EnVision plate reader using built-in UltraLUM setting. Data Analysis. Control cells treated with EGF were set to 100% maximum response. […] With these parameters, the IC50's for each compound in each cell line was calculated using non-linear curve fitting analysis.

HEKn (EGFR WT) = HEKn (EGFR WT) (Homo sapiens, UniProt P00533); assay: EGFR target modulation in HEKn (EGFR-WT) cell line (phospho-EGFR Y1173 ELISA); format: cell-based; conditions: value outside parentheses
In short: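 Primary neonatal human keratinocytes (EGFR WT) were exposed to serially diluted compounds for 3 h, then lysed on ice. Phospho-EGFR Y1173 was measured by chemiluminescent sandwich ELISA using anti-EGFR capture.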

[4] = EGFR (L858R/T790M) with 90 min pre-incubation, read-out: IC50 (μM) Column B
[5] = EGFR (L858R/T790M) with no pre-incubation, read-out: IC50 (μM) Column A

Chain of H3255 (EGFR L858R) (P00533 25-1210 L858R): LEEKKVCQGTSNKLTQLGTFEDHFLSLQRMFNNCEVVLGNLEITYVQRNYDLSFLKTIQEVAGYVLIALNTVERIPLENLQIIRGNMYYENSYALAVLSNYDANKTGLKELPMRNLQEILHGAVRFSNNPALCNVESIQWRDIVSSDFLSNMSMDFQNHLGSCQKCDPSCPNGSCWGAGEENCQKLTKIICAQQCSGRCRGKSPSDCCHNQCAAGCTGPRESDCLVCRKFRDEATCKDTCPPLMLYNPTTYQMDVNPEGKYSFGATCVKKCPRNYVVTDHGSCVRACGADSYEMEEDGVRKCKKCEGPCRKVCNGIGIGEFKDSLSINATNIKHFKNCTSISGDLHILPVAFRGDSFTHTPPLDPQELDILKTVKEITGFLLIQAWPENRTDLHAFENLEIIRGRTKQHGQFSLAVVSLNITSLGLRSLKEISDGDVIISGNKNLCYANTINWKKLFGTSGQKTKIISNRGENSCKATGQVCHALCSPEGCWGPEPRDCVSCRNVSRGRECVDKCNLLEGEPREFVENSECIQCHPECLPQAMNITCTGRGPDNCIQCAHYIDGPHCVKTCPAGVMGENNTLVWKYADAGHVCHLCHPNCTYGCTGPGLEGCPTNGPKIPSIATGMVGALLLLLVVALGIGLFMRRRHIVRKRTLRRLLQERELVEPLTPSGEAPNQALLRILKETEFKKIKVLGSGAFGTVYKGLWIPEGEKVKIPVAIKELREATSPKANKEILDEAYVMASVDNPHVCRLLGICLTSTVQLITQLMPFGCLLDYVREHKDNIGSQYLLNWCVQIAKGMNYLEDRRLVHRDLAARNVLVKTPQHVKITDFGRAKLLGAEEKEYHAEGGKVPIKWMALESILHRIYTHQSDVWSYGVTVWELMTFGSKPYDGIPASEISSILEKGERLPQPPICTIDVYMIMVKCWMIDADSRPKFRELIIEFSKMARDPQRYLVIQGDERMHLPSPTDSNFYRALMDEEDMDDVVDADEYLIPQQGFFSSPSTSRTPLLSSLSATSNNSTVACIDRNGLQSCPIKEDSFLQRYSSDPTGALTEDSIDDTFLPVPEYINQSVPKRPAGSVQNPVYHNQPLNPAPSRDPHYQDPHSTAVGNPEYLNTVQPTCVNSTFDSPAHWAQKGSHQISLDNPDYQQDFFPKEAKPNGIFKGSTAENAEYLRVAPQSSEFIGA
Chain of human EGFR L858R (NIH/3T3 cells) (P00533 25-1210 L858R): as above
Chain of human EGFR WT (NIH/3T3 cells, EGF-induced) (P00533 25-1210): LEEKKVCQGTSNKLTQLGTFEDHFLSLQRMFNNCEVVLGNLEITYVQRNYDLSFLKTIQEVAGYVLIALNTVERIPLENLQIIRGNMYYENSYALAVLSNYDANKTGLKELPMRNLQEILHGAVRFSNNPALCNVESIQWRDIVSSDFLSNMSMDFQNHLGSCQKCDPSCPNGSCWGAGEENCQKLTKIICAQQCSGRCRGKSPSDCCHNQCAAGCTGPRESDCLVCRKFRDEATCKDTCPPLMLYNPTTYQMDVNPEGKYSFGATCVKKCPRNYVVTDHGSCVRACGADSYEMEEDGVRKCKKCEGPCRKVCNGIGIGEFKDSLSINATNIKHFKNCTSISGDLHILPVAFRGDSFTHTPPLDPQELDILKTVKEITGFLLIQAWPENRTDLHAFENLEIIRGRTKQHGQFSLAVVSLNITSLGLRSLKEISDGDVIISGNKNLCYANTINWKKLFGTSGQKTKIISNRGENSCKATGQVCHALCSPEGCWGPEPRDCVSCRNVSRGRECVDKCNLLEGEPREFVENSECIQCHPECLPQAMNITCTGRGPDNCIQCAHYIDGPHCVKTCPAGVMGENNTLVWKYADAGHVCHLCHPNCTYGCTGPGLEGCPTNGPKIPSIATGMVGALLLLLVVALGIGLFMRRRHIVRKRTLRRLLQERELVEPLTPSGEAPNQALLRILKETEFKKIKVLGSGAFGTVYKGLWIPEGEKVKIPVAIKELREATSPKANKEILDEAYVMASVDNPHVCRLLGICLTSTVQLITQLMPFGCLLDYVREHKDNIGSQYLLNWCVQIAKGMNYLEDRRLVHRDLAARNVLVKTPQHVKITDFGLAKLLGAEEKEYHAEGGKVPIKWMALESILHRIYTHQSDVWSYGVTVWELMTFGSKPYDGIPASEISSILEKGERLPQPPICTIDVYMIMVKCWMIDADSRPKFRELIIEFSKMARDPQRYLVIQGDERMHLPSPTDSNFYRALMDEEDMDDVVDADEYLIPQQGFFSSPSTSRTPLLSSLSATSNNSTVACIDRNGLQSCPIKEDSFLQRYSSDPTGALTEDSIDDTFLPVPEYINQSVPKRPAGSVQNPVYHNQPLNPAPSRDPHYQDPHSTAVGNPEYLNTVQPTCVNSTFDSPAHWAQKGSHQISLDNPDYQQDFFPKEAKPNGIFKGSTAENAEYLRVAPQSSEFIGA
Chain of HEKn (EGFR WT) (P00533 25-1210): as above

Row | SMILES | IC50 (EGFR(L858R/T790M); [4]) [µM] | IC50 (EGFR(L858R/T790M); [5]) [µM] | IC50 (H1975 (EGFR L858/T790M)) [nM] | IC50 (H3255 (EGFR L858R)) [nM] | IC50 (HaCaT (EGFR WT)) [nM] | IC50 [1] [µM] | IC50 [2] [µM] | IC50 [3] [µM] | IC50 (HCC827 (Del E746-A750)) [nM] | IC50 (HEKn (EGFR WT)) [nM]
1 | Cc1cc(C(=O)Nc2nc3cccc(Cl)c3n2C2CCCCN(C(=O)/C=C/CN(C)C)C2)cc(P(C)(C)=O)n1 (single isomer, unassigned) [Example 21-9A] | 3.7 | 32.4 | > 10000 | 6580 | > 10000 | – | – | – | – | –
2 | Cc1cccc2nc(NC(=O)c3ccnc(OC(F)F)c3)n([C@@H]3CCCCN(C(=O)/C=C/CN(C)C)C3)c12 [Example 17-103] | < 0.001 | < 0.001 | 1 | 2 | – | 0.019 | < 0.001 | < 0.001 | < 1 | 98
3 | C=CC(=O)N1CCC[C@@H](n2c(NC(=O)c3cccc(C(F)(F)F)c3)nc3cccc(C)c32)C1 [Example 17-106] | 0.002 | 0.038 | 9 | 83 | – | > 10 | 0.124 | 0.007 | 153 | > 10000
4 | C=CC(=O)N1CCC[C@@H](n2c(NC(=O)c3cccc(C(F)(F)F)c3)nc3cc(CN4CCOCC4)ccc32)C1 [Example 17-112] | 0.003 | 0.04 | 15 | 155 | – | > 10 | 0.04 | 0.006 | 135 | > 10000
5 | C=CC(=O)N1CCCC[C@@H](n2c(NC(=O)c3cc(C)nc(C)c3)nc3cc(CN4CCCC4)cc(C)c32)C1 [Example 17-113] | < 0.001 | 0.003 | 2 | 4 | – | 0.081 | 0.001 | 0.001 | < 1 | 265
6 | C=CC(=O)N1CCC[C@@H](n2c(NC(=O)c3cccc(C(F)(F)F)c3)nc3cc(COCC)ccc32)C1 [Example 17-123] | 0.004 | 0.115 | 22 | 199 | – | > 10 | 0.174 | 0.017 | 291 | > 10000
7 | C=CC(=O)N1CCCC[C@@H](n2c(NC(=O)c3ccnc(C)c3)nc3cc(CN4CCCCC4)cc(C)c32)C1 [Example 17-144] | < 0.001 | 0.002 | < 1 | 1 | – | 0.029 | < 0.001 | < 0.001 | < 1 | 72
8 | C=CC(=O)N1CCCC[C@@H](n2c(NC(=O)c3ccnc(C)c3)nc3cc(CN4CCC4)cc(C)c32)C1 [Example 17-145] | < 0.001 | 0.001 | 1 | 2 | – | 0.026 | < 0.001 | 0.001 | < 1 | 95
9 | C=CC(=O)N1CCCC[C@@H](n2c(NC(=O)c3ccnc(C)c3)nc3cc(CN4CCC(F)(F)C4)cc(C)c32)C1 [Example 17-151] | < 0.001 | 0.001 | < 1 | 1 | – | 0.014 | < 0.001 | 0.001 | < 1 | 36
10 | C=CC(=O)N1CCCC[C@@H](n2c(NC(=O)c3ccnc(C)c3)nc3cc(CN4CCS(=O)(=O)CC4)cc(C)c32)C1 [Example 17-155] | < 0.001 | 0.002 | 2 | 2 | – | 0.065 | 0.002 | 0.002 | < 1 | 61

Now from value to compound:

Row | IC50 (EGFR(L858R/T790M); [4]) [µM] | IC50 (EGFR(L858R/T790M); [5]) [µM] | IC50 (H1975 (EGFR L858/T790M)) [nM] | IC50 (H3255 (EGFR L858R)) [nM] | IC50 (HaCaT (EGFR WT)) [nM] | IC50 [1] [µM] | IC50 [2] [µM] | IC50 [3] [µM] | IC50 (HCC827 (Del E746-A750)) [nM] | IC50 (HEKn (EGFR WT)) [nM] | SMILES
11 | 0.024 | 0.894 | 314 | 312 | > 10000 | – | – | – | – | – | Cc1cc(C(=O)Nc2nc3cccc(Cl)c3n2C2CCCCN(C(=O)/C=C/CN(C)C)C2)cc(P(C)(C)=O)n1 (single isomer, unassigned) [Example 21-9B]
12 | 0.004 | 0.036 | 13 | 290 | – | 6.4 | 0.05 | 0.006 | 243 | > 10000 | C=CC(=O)N1CCC[C@@H](n2c(NC(=O)c3cccc(C(F)(F)F)c3)nc3cc(CN4CCCC4)ccc32)C1 [Example 17-117]
13 | 0.008 | 0.062 | 10 | 118 | – | 5 | 0.051 | 0.008 | 71 | > 6900 | C=CC(=O)N1CCC[C@@H](n2c(NC(=O)c3cccc(C(F)(F)F)c3)nc3cc(CN(C)C(C)=O)ccc32)C1 [Example 17-119]
14 | < 0.001 | 0.062 | 16 | 390 | – | > 10 | 0.176 | 0.02 | 90 | > 10000 | C=CC(=O)N1CCC[C@@H](n2c(NC(=O)c3cccc(C(F)(F)F)c3)nc3cc(COC)ccc32)C1 [Example 17-122]
15 | < 0.001 | 0.001 | < 1 | 2 | – | 0.024 | < 0.001 | < 0.001 | < 1 | 65 | C=CC(=O)N1CCCC[C@@H](n2c(NC(=O)c3ccnc(C)c3)nc3cc(CN4CCCC4)cc(C)c32)C1 [Example 17-126]
16 | < 0.001 | 0.002 | < 1 | 2 | – | 0.037 | 0.001 | 0.001 | < 1 | 61 | C=CC(=O)N1CCCC[C@@H](n2c(NC(=O)c3ccnc(C)c3)nc3cc(CN4CC(F)(F)C4)cc(C)c32)C1 [Example 17-153]
